Laboratory results from PMC12304826, “Redirecting the Peptide Cleavage Causes Protease Inactivation” (Angewandte Chemie (International Ed. in English), 2025).

These compounds were tested against T1, human cathepsin L (Homo sapiens, UniProt P07711) (assay: Cathepsin L inhibition assay (Cbz-Phe-Arg-pNA)). Details: 20 µM inhibitor, 60 min; read-out: Residual activity @ 20 µM (%) Cat L.
T1 construct: purchased Enzo Life Sciences, Lörrach, Germany
Type: biochemical
Protocol: 1. Enzyme Inhibition Assays and Kinetic Data of Inhibition of Cathepsins B, L, K and S General. Human cathepsins were assayed either fluorimetrically or spectrophotometrically as noted below. The 10 mM inhibitor solutions were prepared in DMSO. The final concentration of DMSO in all assays was 2%. Non-linear regressions were conducted with GraFit 5. Residual cathepsin activity at an inhibitor concentration of 20 µM was determined from duplicate measurements based on the product formation after 60 min. Concentration dependent measurements were performed in duplicate measurements with five different inhibitor concentrations when the residual cathepsin activity in the presence of 20 µM inhibitor was below 70% (cathepsin B) or below 50% (cathepsins cathepsins L, K, and S). Progress curves were monitored for 60 min. First-order rate constants, kobs, were determined by non-linear regression following the equation [P] = vi × (1 – exp(-kobs × t))/kobs + d, where [P] is the product concentration, vi is the initial product formation rate, kobs is the observed first-order rate constant, and d is the offset. Mean values of kobs were plotted versus corresponding inhibitor concentrations [I], and second-order rate constants of inactivation, kinac/Ki, were obtained by linear regression. The equation kobs/[I] = (kinac/Ki)/(1 + [S]/Km) was used, where [S] is the substrate concentration and Km is the Michaelis-Menten constant. Standard errors (SE) refer to the linear regression. […] Cathepsin L inhibition assay.[1] Human isolated cathepsin L (Enzo Life Sciences, Lörrach, Germany) was assayed spectrophotometrically on a Cary 50 or 100 Bio, Varian, at 405 nm. The reactions were followed at 37 °C. Assay buffer was 100 mM sodium phosphate buffer pH 6.0, 100 mM NaCl, 5 mM EDTA, and 0.01% Brij 35. A stock solution of human cathepsin L of 135 μg/mL in 20 mM malonate buffer pH 5.5, 400 mM NaCl, and 1 mM EDTA was diluted 1:100 with assay buffer containing 5 mM DTT and incubated for 30 min at 37 °C. A 10 mM stock solution of the chromogenic substrate Cbz-Phe-Arg-pNA was prepared in DMSO. The final concentration of the substrate was 100 μM (= 5.88 Km).
Into a cuvette containing 940 μL assay buffer, inhibitor solution and DMSO in a total volume of 10 μL, and 10 μL of the substrate solution were added and mixed. The reaction was initiated by adding 40 μL of the cathepsin L solution.

T1 sequence (P07711 114-333): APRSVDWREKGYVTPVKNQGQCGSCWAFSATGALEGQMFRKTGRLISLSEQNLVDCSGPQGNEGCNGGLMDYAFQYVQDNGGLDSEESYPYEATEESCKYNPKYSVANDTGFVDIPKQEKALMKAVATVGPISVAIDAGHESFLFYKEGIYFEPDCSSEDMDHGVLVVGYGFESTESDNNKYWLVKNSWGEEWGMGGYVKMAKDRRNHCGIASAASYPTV

SMILES	remaining activity at 20 µM [%]
CC(C)C[C@@H](C(=O)N1CCC[C@H]1C(=O)O)N(C)C(=O)Oc1ccc(Cl)cc1 [Compound 15]	97
COC(=O)C(Cc1ccccc1)NC(=O)C(CC(C)C)NC(=O)Oc1ccc(Cl)cc1 (stereo not drawn) [Compound 3]	85
CC(C)C[C@H](NC(=O)Oc1ccc(Cl)cc1)C(=O)N[C@@H](Cc1ccccc1)C(=O)OC(C)(C)C [Compound 2]	96
CC(C)C[C@H](NC(=O)Nc1ccc(Cl)cc1)C(=O)N[C@@H](Cc1ccccc1)C(=O)O [Compound 18]	94
CC(C)CC(NC(=O)Oc1ccc(NC(=O)C(c2ccccc2)c2ccccc2)c(Br)c1)C(=O)N1CCCC1C(=O)O (stereo not drawn) [Compound 27]	81
O=C(NC(CC1CCCCC1)C(=O)NC(Cc1ccccc1)C(=O)O)Oc1ccc(Cl)cc1 (stereo not drawn) [Compound 7]	86
CC(C)C[C@H](NC(=O)Oc1ccc(NC(=O)Cc2ccccc2)c(Cl)c1)C(=O)N1CCC[C@H]1C(=O)O [Compound 24]	97
CC(C)CC(CNC(=O)Oc1ccc(Cl)cc1)C(=O)N[C@H](Cc1ccccc1)C(=O)O (stereo partly drawn) [Compound 5]	90
CC(C)C[C@H](NC(=O)Oc1ccc(Cl)cc1)C(=O)N[C@@H](Cc1ccccc1)C(=O)O [Compound 4]	92
CC(C)C[C@H](NC(=O)Oc1cccc(Cl)c1)C(=O)N1CCC[C@H]1C(=O)O [Compound 23]	92
CC(C)C[C@H](NC(=O)Nc1ccc(Cl)cc1)C(=O)N1CCC[C@H]1C(=O)O [Compound 19]	96
CC(C)CC(NC(=O)Oc1ccccc1)C(=O)NC(Cc1ccccc1)C(=O)O (stereo not drawn) [Compound 1]	94
CC(C)CC(OC(=O)Nc1ccc(Cl)cc1)C(=O)N[C@@H](Cc1ccccc1)C(=O)O (stereo partly drawn) [Compound 16]	95
CC(C)CC(NC(=O)Oc1ccc(NC(=O)c2ccc(-c3ccccc3)cc2)c(Cl)c1)C(=O)N1CCCC1C(=O)O (stereo not drawn) [Compound 25]	94
CC(C)C[C@H](NC(=O)Oc1ccc(Cl)cc1)C(=O)N1CCC[C@H]1C(=O)O [Compound 8]	97
CC(C)C[C@H](NC(=O)Oc1ccc(-c2ccccc2)c(NC(=O)Cc2ccccc2)c1)C(=O)N1CCC[C@H]1C(=O)O [Compound 21]	92
CC(C)CC(CNC(=O)Oc1ccc(Cl)cc1)C(=O)N1CCC[C@@H]1C(=O)O (stereo partly drawn) [Compound 9]	95
CC(C)CC(OC(=O)Nc1ccc(Cl)cc1)C(=O)N1CCC[C@H]1C(=O)O (stereo partly drawn) [Compound 17]	94
CC(C)C[C@H](NC(=O)Oc1ccc(Cl)c(NC(=O)Cc2ccccc2)c1)C(=O)N1CCC[C@H]1C(=O)O [Compound 20]	96
CC(C)C[C@H](NC(=O)Oc1ccc(Cl)cc1)C(=O)N1CCCC[C@H]1C(=O)O [Compound 10]	91

Same assay, conditions: inhibitor not soluble at 20 µM; calculated for 20 µM from IC50 at two lower concentrations; read-out: Residual activity @ 20 µM (%) Cat L, approximated [e]

SMILES	remaining activity at 20 µM [%]
O=C(NC(CC1CCCCC1)C(=O)NC(Cc1ccccc1)C(=O)O)Oc1ccc(NC(=O)C(Cc2ccccc2)Cc2ccccc2)c(Cl)c1 (stereo not drawn) [Compound 31]	76
CC(C)CC(NC(=O)Oc1ccc(NC(=O)C(c2ccccc2)c2ccccc2)c(Cl)c1)C(=O)N1CCCC1C(=O)O (stereo not drawn) [Compound 28]	62
CC(C)CC(NC(=O)Oc1ccc(Cl)c(NC(=O)C(c2ccccc2)c2ccccc2)c1)C(=O)N1CCCC1C(=O)O (stereo not drawn) [Compound 22]	59
O=C(NC(CC1CCCCC1)C(=O)NC(Cc1ccccc1)C(=O)O)Oc1ccc(NC(=O)C(c2ccccc2)c2ccccc2)c(Cl)c1 (stereo not drawn) [Compound 30]	64
CC(C)CC(NC(=O)Oc1ccc(NC(=O)C(c2ccccc2)c2ccccc2)c(Cl)c1)C(=O)NC(Cc1ccccc1)C(=O)O (stereo not drawn) [Compound 29]	70

The compounds below were run against T2, human cathepsin S (Homo sapiens, UniProt P25774) (assay: Cathepsin S inhibition assay (Cbz-Phe-Arg-AMC)). Details: 20 µM inhibitor, 60 min; read-out: Residual activity @ 20 µM (%) Cat S.
T2 construct: purchased Enzo Life Sciences, Lörrach, Germany
Type: biochemical
Protocol: 1. Enzyme Inhibition Assays and Kinetic Data of Inhibition of Cathepsins B, L, K and S General. Human cathepsins were assayed either fluorimetrically or spectrophotometrically as noted below. The 10 mM inhibitor solutions were prepared in DMSO. The final concentration of DMSO in all assays was 2%. Non-linear regressions were conducted with GraFit 5. Residual cathepsin activity at an inhibitor concentration of 20 µM was determined from duplicate measurements based on the product formation after 60 min. Concentration dependent measurements were performed in duplicate measurements with five different inhibitor concentrations when the residual cathepsin activity in the presence of 20 µM inhibitor was below 70% (cathepsin B) or below 50% (cathepsins cathepsins L, K, and S). Progress curves were monitored for 60 min. First-order rate constants, kobs, were determined by non-linear regression following the equation [P] = vi × (1 – exp(-kobs × t))/kobs + d, where [P] is the product concentration, vi is the initial product formation rate, kobs is the observed first-order rate constant, and d is the offset. Mean values of kobs were plotted versus corresponding inhibitor concentrations [I], and second-order rate constants of inactivation, kinac/Ki, were obtained by linear regression. The equation kobs/[I] = (kinac/Ki)/(1 + [S]/Km) was used, where [S] is the substrate concentration and Km is the Michaelis-Menten constant. Standard errors (SE) refer to the linear regression. […]
methyl-coumarin (AMC)-based fluorogenic substrate Cbz-Leu-Arg-AMC was prepared in DMSO. The final concentration of the substrate was 40 μM (= 13.3 Km). When using the spectrofluorometer, into a cuvette containing 960 μL assay buffer, inhibitor solution and DMSO in a total volume of 16 μL, and 4 […]
When using the plate reader, into a well containing 192 µL assay buffer, inhibitor solution and DMSO in a total volume of 3.2 µL and 0.8 µL of the substrate solution were added and mixed. The reaction was initiated by adding 4 µL of the cathepsin K solution.
Cathepsin S inhibition assay.[2] Human recombinant cathepsin S (Enzo Life Sciences, Lörrach, […]
nm and for emission 440 nm. The reactions were followed at 25 °C. Assay buffer was 100 mM sodium phosphate buffer pH 6.0, 100 mM NaCl, 5 mM EDTA, and 0.01% Brij 35. A stock solution of human cathepsin S of 70 μg/mL in 100 mM MES buffer, pH 6.5, 1 mM EDTA, 50 mM L-cysteine, 10 mM DTT, 0.5% Triton X-100 and 30% glycerol was diluted 1:100 with a 50 mM sodium phosphate buffer pH 6.5, 50 mM NaCl, 2 mM EDTA, 0.01% Triton X-100 and 5 mM DTT and incubated for 60 min at 37 °C. A 10 mM stock solution of the fluorogenic substrate Cbz-Phe-Arg-AMC was prepared in DMSO.
The assay was performed with a final substrate concentration of 40 µM (= 0.74 Km). When using the spectrofluorometer, into a cuvette containing 920 μL assay buffer, inhibitor solution and DMSO in a total volume of 16 μL, and 4 μL of the substrate solution were added and mixed. The reaction was initiated by adding 60 μL of the cathepsin S solution. When using the plate reader, into a well containing 188 µL assay buffer, inhibitor solution and DMSO in a total volume of 3.2 µL and 0.8 µL of the substrate solution were added and mixed. The reaction was initiated by adding […] of the cathepsin S solution.

T2 sequence (P25774 115-331): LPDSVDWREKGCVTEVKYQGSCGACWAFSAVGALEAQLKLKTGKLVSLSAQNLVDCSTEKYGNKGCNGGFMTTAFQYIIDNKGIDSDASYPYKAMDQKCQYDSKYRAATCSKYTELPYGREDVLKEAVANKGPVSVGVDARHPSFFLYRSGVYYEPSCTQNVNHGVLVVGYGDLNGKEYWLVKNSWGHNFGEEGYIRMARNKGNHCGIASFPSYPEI

SMILES	remaining activity at 20 µM [%]
CC(C)C[C@@H](C(=O)N1CCC[C@H]1C(=O)O)N(C)C(=O)Oc1ccc(Cl)cc1 [Compound 15]	≥ 98
CC(C)C[C@H](NC(=O)Oc1ccc(NC(=O)N(Cc2ccccc2)Cc2ccccc2)c(Br)c1)C(=O)N1CCC[C@H]1C(=O)O [Compound 26]	59
COC(=O)C(Cc1ccccc1)NC(=O)C(CC(C)C)NC(=O)Oc1ccc(Cl)cc1 (stereo not drawn) [Compound 3]	79
CC(C)C[C@H](NC(=O)Oc1ccc(Cl)cc1)C(=O)N[C@@H](Cc1ccccc1)C(=O)OC(C)(C)C [Compound 2]	≥ 98
CC(C)C[C@H](NC(=O)Nc1ccc(Cl)cc1)C(=O)N[C@@H](Cc1ccccc1)C(=O)O [Compound 18]	78
CC(C)CC(NC(=O)Oc1ccc(NC(=O)C(c2ccccc2)c2ccccc2)c(Br)c1)C(=O)N1CCCC1C(=O)O (stereo not drawn) [Compound 27]	60
O=C(NC(CC1CCCCC1)C(=O)NC(Cc1ccccc1)C(=O)O)Oc1ccc(Cl)cc1 (stereo not drawn) [Compound 7]	72
CC(C)CC(NC(=O)Oc1ccc(NC(=O)C(c2ccccc2)c2ccccc2)c(Cl)c1)C(=O)N1CCCC1C(=O)O (stereo not drawn) [Compound 28]	58
CC(C)C[C@H](NC(=O)Oc1ccc(NC(=O)Cc2ccccc2)c(Cl)c1)C(=O)N1CCC[C@H]1C(=O)O [Compound 24]	90
CC(C)C[C@H](NC(=O)Oc1ccc(Cl)cc1)C(=O)N[C@@H](Cc1ccccc1)C(=O)O [Compound 4]	83
CC(C)C[C@H](NC(=O)Oc1cccc(Cl)c1)C(=O)N1CCC[C@H]1C(=O)O [Compound 23]	89
CC(C)CC(NC(=O)Oc1ccc(Cl)c(NC(=O)C(c2ccccc2)c2ccccc2)c1)C(=O)N1CCCC1C(=O)O (stereo not drawn) [Compound 22]	87
CC(C)C[C@H](NC(=O)Nc1ccc(Cl)cc1)C(=O)N1CCC[C@H]1C(=O)O [Compound 19]	≥ 98
CC(C)CC(NC(=O)Oc1ccccc1)C(=O)NC(Cc1ccccc1)C(=O)O (stereo not drawn) [Compound 1]	97
CC(C)CC(OC(=O)Nc1ccc(Cl)cc1)C(=O)N[C@@H](Cc1ccccc1)C(=O)O (stereo partly drawn) [Compound 16]	56
CC(C)C[C@H](NC(=O)Oc1ccc(Cl)cc1)C(=O)N1CCC[C@H]1C(=O)O [Compound 8]	≥ 98
CC(C)C[C@H](NC(=O)Oc1ccc(-c2ccccc2)c(NC(=O)Cc2ccccc2)c1)C(=O)N1CCC[C@H]1C(=O)O [Compound 21]	89
CC(C)CC(CNC(=O)Oc1ccc(Cl)cc1)C(=O)N1CCC[C@@H]1C(=O)O (stereo partly drawn) [Compound 9]	92
CC(C)CC(OC(=O)Nc1ccc(Cl)cc1)C(=O)N1CCC[C@H]1C(=O)O (stereo partly drawn) [Compound 17]	93
CC(C)C[C@H](NC(=O)Oc1ccc(Cl)c(NC(=O)Cc2ccccc2)c1)C(=O)N1CCC[C@H]1C(=O)O [Compound 20]	93
CC(C)C[C@H](NC(=O)Oc1ccc(Cl)cc1)C(=O)N1CCCC[C@H]1C(=O)O [Compound 10]	≥ 98

Same assay, conditions: five inhibitor concentrations, 60 min progress curves

SMILES	kinac/Ki ± SE Cat S [M⁻¹ s⁻¹]
CC(C)CC(CNC(=O)Oc1ccc(Cl)cc1)C(=O)N[C@H](Cc1ccccc1)C(=O)O (stereo partly drawn) [Compound 5]	10.2

Same assay, conditions: inhibitor not soluble at 20 µM; calculated for 20 µM from IC50 at two lower concentrations; read-out: Residual activity @ 20 µM (%) Cat S, approximated [e]

SMILES	remaining activity at 20 µM [%]
O=C(NC(CC1CCCCC1)C(=O)NC(Cc1ccccc1)C(=O)O)Oc1ccc(NC(=O)C(Cc2ccccc2)Cc2ccccc2)c(Cl)c1 (stereo not drawn) [Compound 31]	46
CC(C)CC(NC(=O)Oc1ccc(NC(=O)c2ccc(-c3ccccc3)cc2)c(Cl)c1)C(=O)N1CCCC1C(=O)O (stereo not drawn) [Compound 25]	53
O=C(NC(CC1CCCCC1)C(=O)NC(Cc1ccccc1)C(=O)O)Oc1ccc(NC(=O)C(c2ccccc2)c2ccccc2)c(Cl)c1 (stereo not drawn) [Compound 30]	42
CC(C)CC(NC(=O)Oc1ccc(NC(=O)C(c2ccccc2)c2ccccc2)c(Cl)c1)C(=O)NC(Cc1ccccc1)C(=O)O (stereo not drawn) [Compound 29]	63
